Results reported in patent publication US20090239926A1, “METHODS FOR THE TREATMENT OF PSORIASIS OR PSORIATIC ARTHRITIS USING CYCLOPROPYL-N-CARBOXAMIDE” (priority 2008, published 2009).

Tested on: normal human skin xenotransplanted onto beige-SCID mice injected with psoriatic patient NK cells
Assay: Human NK cell-driven psoriasis model: human skin xenotransplanted onto beige-SCID mice
Format: in vivo
Details: 5 mg/kg/day p.o., b.i.d., 14 days
Procedure: Healthy human skin pieces having a width of 0.4 mm and surface area of 3×3 cm were provided from residual skin of routine plastic surgery procedures from the Plastic Surgery Department of the Rambam Medical Center, Isreal. In addition, blood samples from psoriatic patients were taken at a volume of 25 mL.
Twenty-one (21) beige-severe combined immunodeficient mice (SCID) (weight about 20 g) were included in this study. Normal human skin was transplanted onto the beige-SCID mice as previously described by Nickoloff et al., 1995; Wrone-Smith, et al., 1996. A sample of each donor was transplanted onto […] so that the three treatment groups (n=7 mice/group) were homogenous.
PBMC from the psoriatic patient blood were isolated and cultured in the presence of IL-2 (100 U/mL of media) for 14 days to activate the NK cells, as previously described by Gilhar et al., J. Invest. Dermatol. 2002, 119(2):384-91. Four weeks following the engraftment, each mouse was injected with 1×10^7 psoriatic patients activated allogeneic NK cells (1×10^7 cells injected/mouse, n=21). Two weeks following the injections, the mice were divided and treated, twice a day for 14 days. All compounds were dosed at 5 mg/kg/day, divided into b.i.d. doses. To perform p.o. administration, mice were held firmly by gently gripping their fur over the neck with thumb and index fingers and restraining the tail with the little finger. A volume of 0.05 mL of a 1 mg/ml aqueous solution of Compound A was administrated twice a day (b.i.d.) with a syringe through a blunt-ended curved feeding tube, which was inserted into the esophagus. The vehicle (negative) control groups received 0.05 mL (b.i.d.) of a 0.5% carboxymethylcellulose and 0.25% Tween 80. […] Two weeks after starting the treatments (4 weeks following the injections), the skins were harvested. Grafts were analyzed by histology and immunohistochemistry.
Determination of Epidermal Thickness: Skin graft histological assessment was performed by light microscopy both before and after transplantation and two blinded observers performed the evaluations. Epidermal thickness was determined with an ocular micrometer, at a minimum of 50 points along the epidermis selected to represent points of maximal and minimal thickness. Thickness of the suprapapillary plate was similarly measured at 50 points for each sample.
Immunohistochemical Staining: Monoclonal antibodies to human antigens used were as follows for immunohistochemistry on frozen sections: anti-HLA-DR (Becton Dickenson, San Jose, Calif.), and anti-CD54 (ICAM-1) (Biodesign, Saco, Me.). Purified murine IgG was used as a control for the above antibodies. Immunohistochemistry was performed on OCT embedded specimens with a biotin-avidin system (Vectostain, Vector Laboratories, Burlingame, Calif.).
Goat anti-human TNF-α (R&D Systems, Minneapolis, Minn.) was used on deparaffinized and peroxidase blocked slides. Sections were treated with citrate buffer, pH=6, in the microwave oven for 20 minutes. The sections were then cooled for 30 minutes at room temperature and blocked for non-specific binding as well as avidin-biotin. All washes were performed with phosphate-buffered saline-saponin. Anti-TNF-α was applied overnight at 4° C. Slides were then incubated with biotinylated rabbit anti goat-IgG (DAKO, Carpinteria, Calif.), followed by streptavidin horseradish peroxidase (HRP) (Jackson Immunoresearch, West Grove, Pa.). The color was developed with 3-amino-9-ethylcarbazole (AEC).
Scoring of Immunohistochemical Staining: Diffuse staining was defined as positive and intense expression of more than 50 percent of the epidermis versus focal staining which was defined as less than 50 percent of the epidermis. Focal staining may represent positive expression of very small areas.
Statistical Analysis: Statistical analysis was carried out using the one-way ANOVA with a Bonferroni Multiple Comparison post-hoc test using Prism 4.00 (GraphPad Software; San Diego, Calif.).

## CCOc1cc([C@@H](CS(C)(=O)=O)N2Cc3cccc(NC(=O)C4CC4)c3C2=O)ccc1OC [Compound A, cyclopropyl-N-{2-[(1S)-1-(3-ethoxy-4-methoxyphenyl)-2-(methylsulfonyl)ethyl]-3-oxoisoindoline-4-yl}carboxamide]
  HLA-DR staining: number of grafts (of 7) with Diffuse pattern: 4 Diffuse
  Histological features: Complete Recovery (grafts of 7): 3/7
  Histological features: Partial Recovery (grafts of 7): 1/7
  Histological features: Psoriasiform (grafts of 7): 3/7
  ICAM-1 staining: number of grafts (of 7) with Diffuse pattern: 3 Diffuse
  Recovery, partial or complete (grafts of 7): (4/7)
  TNF-α staining: number of grafts (of 7) with Multiple TNF-α positive cells: 3 Multiple
  decrease in epidermal thickness compared to vehicle treated animals: ~50%
  grafts (of 7) with ICAM-1 reduced to focal or negative expression: 4/7
  grafts (of 7) with few or negative TNF-α expressing cells: 4/7
  overall response rate (partial plus complete recovery from psoriasis features): 57%
  percentage of grafts with HLA-DR reduced to focal or negative expression: 43%
  percentage of grafts with ICAM-1 reduced to focal or negative expression: 57%
  percentage of grafts with focal HLA-DR expression: 14.3%
  percentage of grafts with negative HLA-DR expression: 28.6%
  percentage of grafts with reduced TNF-α expression (partial and complete recovery): 57%
Mean of 7 grafts
  Epidermal Thickness, Mean: 736 μm
  Proliferation Index (Ki-67 positive keratinocytes), Mean: 26.2%
Mean of 7 mice
  mean epidermal thickness: 736 microns
Patient 1
  Epidermal Thickness of individual skin graft: 687 μm
  Histological Evaluation of individual skin graft: Partial recovery w/
  Proliferation Index of individual skin graft: 41.9%
Patient 2
  Epidermal Thickness of individual skin graft: 1098 μm
  Histological Evaluation of individual skin graft: Psoriasiform
  Proliferation Index of individual skin graft: 47.4%
Patient 3
  Epidermal Thickness of individual skin graft: 626 μm
  Histological Evaluation of individual skin graft: Psoriasiform
  Proliferation Index of individual skin graft: 33.5%
Patient 4
  Epidermal Thickness of individual skin graft: 333 μm
  Histological Evaluation of individual skin graft: Complete recovery
  Proliferation Index of individual skin graft: 12.2%
Patient 5
  Epidermal Thickness of individual skin graft: 457 μm
  Histological Evaluation of individual skin graft: Complete recovery
  Proliferation Index of individual skin graft: 9.2%
Patient 6
  Epidermal Thickness of individual skin graft: 627 μm
  Histological Evaluation of individual skin graft: Complete recovery
  Proliferation Index of individual skin graft: 21.4%
Patient 7
  Epidermal Thickness of individual skin graft: 1324 μm
  Histological Evaluation of individual skin graft: Psoriasiform
  Proliferation Index of individual skin graft: 17.5%
